Assay results from patent US20130225611A1, “Compositions and Methods for Reducing Cancer Cell Proliferation and Modulating Importin-Beta Function” (THE REGENTS OF THE UNIVERSITY OF CALIFORNIA, priority 2011, published 2013).

Tests used:
[1] = test system: mitotic importin-β cargo release; test: Rango-3 FRET sensor FLIM in mitotic HeLa cells; assay type: cell-based, human; conditions: DMSO controls 0.12+/−0.4 ns
Text: A key feature of importazole, a cell-permeable importin-β/RanGTP inhibitor, is its ability to dissect novel roles of this pathway in dividing human cells, which also provide a system to analyze mitotic gradients of released cargos using FRET probes. If importazole disrupts the interaction of importin-β with RanGTP, then the chromatin-localized FRET gradient of the cargo probe Rango should be reduced, since it undergoes FRET when released from importin-β in HeLa cells. […] Thus, importazole impairs mitotic importin-β cargo release in HeLa cells.
The Rango-3 FRET sensor is an improved version of Rango and was created by replacing Cerulean-EYFP donor-acceptor pair in Rango with EGFP as a donor and non-fluorescent acceptor sREACh which was modified by the introduction of mild dimerization mutations. […] The emission was collected from a custom side port, filtered through a 525 nm bandpass filter (ET525/50 Chroma) and detected by a HPM-100-40 module (Becker & Hickl) containing a hybrid Hamamatsu R10467-40 GaAsP photomultiplier. Two to three days before the experiment, HeLa cells were transfected with a pSG8 plasmid containing the Rango-3 open reading frame (pK135) to induce sensor expression. […] Fluorescence lifetime images were produced and analyzed using SPCI software (Becker & Hickl).

[2] = biological target: T1, RanGTP/importin-β interaction (Homo sapiens, UniProt Q14974); test: RanGTP protection assay (RanGAP-stimulated hydrolysis); assay type: biochemical; conditions: 50 μM importazole
T1 construct: made in house; host or cells: E. coli: BL21 (importin-β), SG13 (Ran)
Description: For RanGTP protection assays, all steps were performed in buffer containing 50 mM HEPES pH 7.6 with 2.5 mM MgCl2. Loading the Ran with GTP: 40 nM Biotin labeled RCC1 was bound to streptavidin agarose resin for 30 min rotating at 4° C. The Biotin labeled RCC1 was a gift of D. Halpin. The beads were washed with fresh buffer to remove any free RCC1, and 16 μM nucleotide free Ran and 51 μM GTPγP^32 were added and Ran was allowed to load for 30 min at room temperature. The beads were then removed using a spin column, and the remaining supernatant was filtered through a Sephadex G-50 column to remove free GTPγP^32. The loaded Ran was then diluted to 1.6 μM for further use. Performing the assay: All reactions were performed in a final volume of 200 μL at and in buffer containing 50 mM HEPES pH 7.6 with 2.5 mM MgCl2. Importin-β was pre-incubated with either 0.5% DMSO or 50 μM importazole in 0.5% DMSO and 100 nM RanGTPγP^32 at room temperature. 1 μM RanGAP was added to start each reaction, and the reaction was allowed to proceed for 5 min before the reaction was stopped using 1 ml of a solution containing 7% charcoal, 10% ethanol, 0.1 M HCl, and 10 mM KH2PO4. The resulting solution was spun at 10,000 RPM for 2 min in a tabletop centrifuge to pellet the charcoal, and the resulting supernatant was removed and counted for three min per sample in a liquid scintillation counter.

transportin = biological target: T2, transportin (Homo sapiens, UniProt Q92973); test: fluorescent thermal shift assay (Sypro Orange), transportin; assay type: binding; conditions: 2 μM protein, 50 μM importazole
T2 construct: made in house; host or cells: SG13 cells (E. coli)
T2 sequence (Q92973 1-898): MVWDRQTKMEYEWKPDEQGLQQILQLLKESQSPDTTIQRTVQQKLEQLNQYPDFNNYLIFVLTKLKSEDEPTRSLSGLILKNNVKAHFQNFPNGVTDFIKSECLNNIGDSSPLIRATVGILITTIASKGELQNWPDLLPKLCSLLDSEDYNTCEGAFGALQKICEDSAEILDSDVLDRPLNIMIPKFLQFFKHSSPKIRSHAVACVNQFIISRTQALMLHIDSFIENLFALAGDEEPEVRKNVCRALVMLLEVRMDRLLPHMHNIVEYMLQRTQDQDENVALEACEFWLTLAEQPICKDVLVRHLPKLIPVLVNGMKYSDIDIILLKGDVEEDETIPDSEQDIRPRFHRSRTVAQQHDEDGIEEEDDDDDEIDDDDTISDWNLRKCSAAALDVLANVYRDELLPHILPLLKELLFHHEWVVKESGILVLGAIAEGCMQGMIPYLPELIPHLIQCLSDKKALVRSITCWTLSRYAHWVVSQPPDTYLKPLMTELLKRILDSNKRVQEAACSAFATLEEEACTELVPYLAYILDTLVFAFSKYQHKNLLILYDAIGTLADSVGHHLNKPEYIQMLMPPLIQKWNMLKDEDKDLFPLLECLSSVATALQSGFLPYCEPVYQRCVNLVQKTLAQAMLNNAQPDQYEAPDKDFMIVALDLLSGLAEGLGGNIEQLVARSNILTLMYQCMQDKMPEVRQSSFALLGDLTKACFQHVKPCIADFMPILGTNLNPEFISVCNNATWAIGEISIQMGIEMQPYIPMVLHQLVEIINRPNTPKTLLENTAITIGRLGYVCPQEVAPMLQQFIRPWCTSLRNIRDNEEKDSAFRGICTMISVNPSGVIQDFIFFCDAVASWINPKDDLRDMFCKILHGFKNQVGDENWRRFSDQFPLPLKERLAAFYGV
Description: Experiments were performed using Applied Biosystems StepOnePlus™ Real-Time polymerase chain reaction (RT-PCR) System. Protein stocks were diluted in PBS and added 70% v/v to a Microamp® Fast 96-well Reaction Plate and maintained on ice. Compounds (importazole and control compound 3016) were then added at 30% v/v in 3% DMSO. Freshly prepared 100× water based-dilution of Sypro® Orange Protein Gel Stain was then added at 1% v/v to reach a final reaction volume of 20 μl. Samples were mixed by gentle pipetting. After sealing the plates with Microamp™ Optical Adhesive Film, the plate was subjected to a heating cycle composed of a 10 sec prewarming step at 25° C. and a gradient between 25° C. and 95° C. with a 0.3° C. ramp. Data was analyzed using the StepOnePlus™ Software v2.1.

What does the source list for `CC(Nc1nc(N2CCCC2)nc2ccccc12)c1ccccc1` (stereo not drawn) [importazole, (1-phenyl-ethyl)-(2-pyrrolidin-1-yl-quinazolin-4-yl)-amine]?
difference in fluorescence lifetime of Rango-3 donor GFP between chromosomes and distal cytoplasm [1]: 0.07+/−0.03 ns; effect on ability of importin-β to protect RanGTP from RanGAP-stimulated hydrolysis [2]: do not indicate that importazole disrupts the RanGTP/importin-β interaction; effect on melting curve of transportin (transportin): did not significantly affect the melting curves
